Consider 29 compounds from US7803801B2, “Aminopyridine compounds having Syk inhibitory activity” (Japan Tobacco, Inc., priority 2005, dated 2010).

Assay [1] deals with GST-Syk Full Protein (human) (Homo sapiens, UniProt P43405). The assay is described as follows: Syk kinase inhibition test (HTRF method). The assay is classed as biochemical. The gist of the method:
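HTRF read-out: after EDTA termination and 1 h with XL665-streptavidin and Eu-anti-phosphotyrosine, the 665/620 nm ratio was measured. The reaction ran 30 min at 20–25 °C with final 6.4 nM human GST-Syk, 250 nM biotinylated peptide, 100 μM ATP, pH 7.0 HEPES buffer, 2% DMSO.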
For orientation: In TR-FRET formats the signal depends on donor and acceptor labels being close together.

Assay [2] relates to cultured human mast cells. Kind of assay: Degranulation inhibition test using cultured human mast cells (IgE cross-linking, β-Hexosaminidase release). The assay is classed as cell-based. To be noted: read-out: human degranulation ave. IC50. As to the method:
Degranulation Inhibition Test Using Cultured Human Mast Cells
(1) Separation of Hematopoietic Stem Cells;
After 10 to 60 mL of umbilical cord blood collected with heparin was diluted with an equivalent amount of buffer (0.5% BSA, 2 mM EDTA/PBS-), it was superposed on Ficoll-Paque (Amersham Pharmacia Biotech) (Ficoll/Blood (1:2)) and mononuclear leukocyte fraction was collected by centrifuging it at 400 G (1350 rpm) 4° C. for 30 minutes. After centrifugal washing (1500 rpm, 5 min, 4° C.×3) with buffer, the number of cells was counted and 0.1 mL of CD34 Progenitor Cell Isolation Kit (Miltenyi Biotec), Reagent A1 (Fc blocking) was added for 1×10^8 cells. After agitation, 0.1 mL of Reagent A2 (CD34 antibody-hapten) was added (final volume 0.5 mL/1×10^8 cells) and incubated at 9° C. for further 15 minutes after agitation. After centrifugal washing (1500 rpm, 5 min, 4° C.×3), it was resuspeded in a buffer (0.4 mL) and 0.1 mL of Reagent B (anti hapten antibody-microbeads) was added and agitated (final volume 0.5 mL/1×10^8 cells) and incubated at 9° C. for further 15 minutes. After centrifugal washing (1500 rpm, 5 min, 4° C.×2), it was resuspeded in a buffer (0.5 mL) and loaded on CS column (Miltenyi Biotec) set in MACS (MAgnetic Cell Sorting system; Miltenyi Biotec, Daiichi Pure Chemicals) and washed with 30 mL of buffer to remove CD34^− cells. The column was separated from MACS and eluted with 30 mL of buffer and CD34^+ cells bound to the column were collected and used as a hematopoietic stem cell population.
(2) Acquisition of Human Mast Cells by Long-Term Culturing of Hematopoietic Stem Cells;
The CD34^+ cells separated in (1) were resuspended in Iscove's Modified Dulbecco's Medium (IMDM, Gibco) containing human (rh)SCF (1 μg/mL, Peprotech), rhIL-6 (0.5 μg/mL, Peprotech), rhIL-3 (10 ng/mL, Peprotech), 1% Insulin-Transferrin (Gibco), 5×10^−5M 2-ME (Gibco), 0.1% BSA (Sigma) in a density of 1×10^6 cells/ml and disseminated on 24-well culture plate with a dose of 0.1 mL/well and 0.9 ml of IMDM (Methocult SF^BIT StemCell technology) containing 0.9% methyl cellulose was added and culturing was started. The above culture medium (excluding methyl cellulose) was added in a week and after that 100 μL/well of the above culture medium (further excluding IL-3) was added at an interval of every once a week so that cells were diluted to maintain 10^5 cells/mL/well order and cultured more than about 8 weeks and thereby human culture mast cells were obtained.
(3) Expression Enhancement of FcεRI and Inhibition Test IgE Cross-Linking Stimulating Degranulation;
rhIL-4 (final concentration 1 ng/mL, R & D) and Homo sapiens(h) IgE (final concentration 0.5 μg/mL, CHEMICON) were added to the obtained human culture mast cells, and they were incubated for 5 days to enhance the expression of FcεRI. After incubation, cells were collected and, after centrifugal washing (IMDM), they were disseminated on 96-well culture plate in 5×10^4 cells/80 μL/well.
10 μL of a compound 10-fold diluted with IMDM after dissolved in DMSO (DMSO final concentration 0.1%) was added and reacted at 37° C. for 10 minutes. Further, 10 μL of anti-hIgE Ab (CHEMICON) adjusted to 100 μg/mL (final concentration 10 μg/mL) was added and degranulation was caused by being stimulated at 37° C. for 30 minutes. After centrifugation, 50 μL/well of the supernatant was collected and stored at −40° C. untill the quantity of degranulation was measured. The measurement of quantity of degranulation was performed using enzymatic activity of β-Hexosaminidase contained in the granulates as an index. That is, an equivalent amount of p-nitrophenyl-N-acetyl-β-D-glucosaminide (1 mM) (containing 0.1% Triton X-100) which is a substrate of β-Hexosaminidase was added to 50 μL of the culture filtrate, and after reacted at 37° C. for 2 hours, the reaction was terminated by using 100 μL of Carbonate buffer (0.1M, pH 10). […]

[3] abbreviates: Tables 2-x, thiophene compounds B, read-out: sykHTRK ave IC50.
The mark [4] stands for this setting: Mast cell, Tables 2-x, thiophene compounds B, cultured human mast cells.
Setting [5] is: Tables 1-x, compounds A, read-out: sykHTRF ave IC50.
Where [6] appears, read: Mast cell, Tables 1-x, compounds A, cultured human mast cells.
Where [7] appears, read: HTRF, 100 μM ATP, 30 min room temperature, average, read-out: sykHTRF ave IC50.
Where [8] appears, read: Mast cell, cultured human mast cells, anti-hIgE stimulation, β-Hexosaminidase index, average.

pIC50: −log10 of the molar value. Read-outs that look alike come from different tables or passages of the source. A value given as a limit tells only on which side of the number the result lay.

Turning to `CC(=O)c1ccc(-c2cccc(Nc3cc(CO)ccn3)n2)s1` [Compound B-96], the values for the pIC50 in assay [1] (setting [3]) and in assay [2] (setting [4]) were 6.00 to 7.00 and under 6.00, respectively.
In the case of `Cc1ccnc(Nc2cccc(-c3cnc(N4CCC(O)CC4)s3)n2)c1` [Compound A-433, 1-{5-[6-(4-methylpyridin-2-ylamino)pyridin-2-yl]thiazol-2-yl}piperidin-4-ol], the pIC50 in assay [1] (setting [5]) and in assay [2] (setting [6]) was over 7.00 in each case.
Regarding `CC(=O)NC(C)(C)c1ncc(-c2cccc(Nc3cc(C)ccn3)n2)s1` [Compound A-114], the pIC50 – broadly, the IC50 on a negative log10 scale, so that one unit is a factor of ten – in assay [1] (setting [7]) is 6.00 to 7.00; in assay [2] (setting [8]) it was under 6.00.
For `NC(=O)[C@@H]1CCCN1c1ncc(-c2cccc(Nc3cc(Cl)ccn3)n2)s1` [Compound A-542, (S)-1-{5-[6-(4-chloropyridin-2-ylamino)pyridin-2-yl]thiazol-2-yl}pyrrolidine-2-carboxamide], the pIC50 in assay [1] (setting [5]) and in assay [2] (setting [6]) was over 7.00 throughout.
Turning to `Cc1ccnc(Nc2cccc(-c3cnc(N(C)CC(N)=O)s3)n2)c1` [Compound A-556, 2-(N-methyl-N-{5-[6-(4-methylpyridin-2-ylamino)pyridin-2-yl]thiazol-2-yl}amino)acetamide], the pIC50 in assay [1] (setting [5]) and in assay [2] (setting [6]) was over 7.00 throughout.
As to `CC(=O)N[C@H](c1ccc(O)cc1)c1ncc(-c2cccc(Nc3cc(C)ccn3)n2)s1` [Compound A-161, N—((R)-(4-hydroxyphenyl)-{5-[6-(4-methylpyridin-2-ylamino)pyridin-2-yl]thiazol-2-yl}methyl)acetamide], the pIC50 was over 7.00 in assay [1] (setting [7]) and 6.00 to 7.00 in assay [2] (setting [8]).
Taken in the same sequence, the figures for `CC(=O)N[C@@H](C)c1ncc(-c2cccc(Nc3cc(C4(C)OCCO4)ccn3)n2)s1` [Compound A-199] were 6.00 to 7.00 and 6.00 to 7.00.
As for `Cc1ccnc(Nc2cccc(-c3cnc(C4CCN(C(=O)N5CCC(=O)CC5)CC4)s3)n2)c1` [Compound A-250], the pIC50 in assay [1] (setting [7]) is 6.00 to 7.00; in assay [2] (Homo sapiens, Mast cell, cultured human mast cells, anti-hIgE stimulation, β-Hexosaminidase index, average), 6.00 to 7.00.
For `CNC(=O)C1CCN(c2ncc(-c3cccc(Nc4cc(C)ccn4)n3)s2)CC1` [Compound A-4, N-methyl-1-{5-[6-(4-methylpyridin-2-ylamino)pyridin-2-yl]thiazol-2-yl}piperidine-4-carboxamide], the figures for the pIC50 in assay [1] (setting [7]) and in assay [2] (setting [8]) were over 7.00 and under 6.00, respectively.
The corresponding values for `CCOC(=O)Cc1ccnc(Nc2cccc(-c3cnc([C@@H]4CCC(=O)N4)s3)n2)c1` [Compound A-332] are 6.00 to 7.00 and 6.00 to 7.00.
The corresponding values for `Cc1ccnc(Nc2cccc(-c3cnc(Cc4cccs4)s3)n2)c1` [Compound A-232] are 6.00 to 7.00 and under 6.00.
Taken in the same sequence, the figures for `Cc1ccnc(Nc2cccc(-c3cnc(COCC(N)=O)s3)n2)c1` [Compound A-354] were 6.00 to 7.00 and 6.00 to 7.00.
Take `Cc1ccnc(Nc2cccc(-c3ccc(C(=O)NCC(=O)O)s3)n2)c1` [Compound B-99]: the pIC50 is 6.00 to 7.00 in assay [1] (setting [3]) and under 6.00 in assay [2] (setting [4]).
With `Cc1ccnc(Nc2cccc(-c3cnc([C@H](C)N(C)C(=O)OC(C)(C)C)s3)n2)c1` [Compound A-50], the pIC50 is 6.00 to 7.00 in assay [1] (setting [7]) and under 6.00 in assay [2] (setting [8]).
`O=C1CC[C@@H](c2ncc(-c3cccc(Nc4cc(CCO)ccn4)n3)s2)N1` [Compound A-330, (S)-5-(5-{6-[4-(2-hydroxyethyl)pyridin-2-ylamino]pyridin-2-yl}thiazol-2-yl)pyrrolidin-2-one]: the pIC50 in assay [1] (setting [7]) was over 7.00; in assay [2] (setting [8]), 6.00 to 7.00.
Turning to `Cc1ccnc(Nc2cccc(-c3cnc(CN4CCNC(=O)C4)s3)n2)c1` [Compound A-351, potassium carbonate 4-{5-[6-(4-methylpyridin-2-ylamino)pyridin-2-yl]thiazol-2-ylmethyl}piperazin-2-one], the pIC50 was over 7.00 in assay [1] (setting [7]) and 6.00 to 7.00 in assay [2].
Turning to `CNC(=O)CN(C)C(=O)C1CCN(c2ncc(-c3cccc(Nc4cc(C)ccn4)n3)s2)CC1` [Compound A-469, N-methyl-N-methylcarbamoylmethyl-1-{5-[6-(4-methylpyridin-2-ylamino)pyridin-2-yl]thiazol-2-yl}piperidine-4-carboxamide], the values for the pIC50 in assay [1] (setting [5]) and in assay [2] (setting [6]) were over 7.00 and 6.00 to 7.00, respectively.
Take `Cc1ccnc(Nc2cccc(-c3cnc(N4CCC(CNC(=O)CO)CC4)s3)n2)c1` [Compound A-486, 2-hydroxy-N-(1-{5-[6-(4-methylpyridin-2-ylamino)pyridin-2-yl]thiazol-2-yl}piperidin-4-ylmethyl)acetamide]: the results for the pIC50 in assay [1] (setting [5]) and in assay [2] (setting [6]) were over 7.00 and 6.00 to 7.00, respectively.
In the case of `CC(=O)N1C[C@H](O)C[C@H]1c1ncc(-c2cccc(Nc3cc(C)ccn3)n2)s1` [Compound A-95], the figures for the pIC50 in assay [1] (setting [7]) and in assay [2] (setting [8]) were 6.00 to 7.00 and under 6.00, respectively.
With `Cc1ccnc(Nc2cccc(-c3cnc(N4CCC(N(C)C(=O)CO)CC4)s3)n2)c1` [Compound A-483, 2-hydroxy-N-methyl-N-(1-{5-[6-(4-methylpyridin-2-ylamino)pyridin-2-yl]thiazol-2-yl}piperidin-4-yl)acetamide], the pIC50 is over 7.00 in assay [1] (setting [5]) and 6.00 to 7.00 in assay [2] (setting [6]).
As for `Cc1ccnc(Nc2cccc(-c3cnc(CC(C)(C)CCO)s3)n2)c1` [Compound A-158, 3,3-dimethyl-4-{5-[6-(4-methylpyridin-2-ylamino)pyridin-2-yl]thiazol-2-yl}butan-1-ol], the pIC50 in assay [1] (setting [7]) is over 7.00; in assay [2] (setting [8]), 6.00 to 7.00.
For the compound `CNC(=O)CN1C(=O)OC[C@H]1c1ncc(-c2cccc(Nc3cc(C)ccn3)n2)s1` [Compound A-402], the pIC50 in assay [1] (setting [5]) and in assay [2] (setting [6]) was under 6.00 throughout.
In the case of `Cc1ccnc(Nc2cccc(-c3cnc(COCC(=O)N4CC(=O)NC(=O)C4)s3)n2)c1` [Compound A-393], the pIC50 is 6.00 to 7.00 in assay [1] (setting [5]) and under 6.00 in assay [2] (setting [6]).
Turning to `Cc1ccnc(Nc2cccc(-c3cnc([C@H]4CC[C@H](C(=O)N5CCOCC5)CC4)s3)n2)c1` [Compound A-275], the pIC50 in assay [1] (setting [7]) and in assay [2] (setting [8]) was 6.00 to 7.00 in each case.
As to `Cc1ccnc(Nc2cccc(-c3cnc(CNC(=O)CCO)s3)n2)c1` [Compound A-186], the pIC50 in assay [1] (setting [7]) and in assay [2] (setting [8]) was 6.00 to 7.00 throughout.
On to `CC(=O)OCC(=O)N[C@@H](C)c1ncc(-c2cccc(Nc3cc(C)ccn3)n2)s1` [Compound A-146], for which the pIC50 in assay [1] (setting [7]) and in assay [2] (setting [8]) was 6.00 to 7.00 each time.
On to `Cc1ccnc(Nc2cccc(-c3cnc(C4CCN(C(=O)c5ccncc5)CC4)s3)n2)c1` [Compound A-306], for which the pIC50 in assay [1] (setting [7]) and in assay [2] (setting [8]) was 6.00 to 7.00 each time.
Turning to `Cc1ccnc(Nc2cccc(-c3cnc(CNC(=O)c4cc(C)on4)s3)n2)c1` [Compound A-395], the pIC50 in assay [1] (setting [5]) is 6.00 to 7.00; in assay [2] (setting [6]), under 6.00.
Consider `CC(=O)Nc1ncc(-c2cccc(Nc3cc(C)ccn3)n2)s1` [Compound A-23], for which the pIC50 in assay [2] (setting [8]) was 6.00 to 7.00.
